Here are results for 26 molecules from publication PMC11855827, “High-Throughput Screening of Five Compound Libraries for Anthelmintic Activity and Toxicity Leads to the Discovery of Two Flavonoid Compounds” (International Journal of Molecular Sciences, 2025).

The assay has as its system C. elegans.
Where [1] appears, read: Table S2, C. elegans SS assay, 110 μM, 0 h, averages of 4 data points.
Setting [2] is: Table S2, C. elegans SS assay, 110 μM, 24 h, averages of 4 data points.

Like-named read-outs stand apart in the source and are kept apart here.

As for `COc1ccc(-c2oc3c(CC=C(C)C)c(O[C@@H]4O[C@H](CO)[C@@H](O)[C@H](O)[C@H]4O)cc(O)c3c(=O)c2O[C@@H]2O[C@@H](C)[C@H](O)[C@@H](O[C@@H]3O[C@H](CO)[C@@H](O)[C@H](O)[C@H]3O)[C@H]2O)cc1` [Epimedin A1], the “Percentage of motility inhibition 0 h” value under setting [1] was determined as 6%. Besides, the “Percentage of motility inhibition 24 h” value under setting [2] was determined as 5%.

For `CC(=O)O[C@@H](C[C@@H](C)C1=C2C[C@H](O)[C@H]3[C@@]4(C)CCC(=O)C(C)(C)[C@@H]4CC[C@]3(C)[C@@]2(C)CC1=O)[C@H]1OC1(C)C` [Alisol C 23-acetate], the “Percentage of motility inhibition 0 h” value under setting [1] is listed as 0%. Besides, the “Percentage of motility inhibition 24 h” value under setting [2] was 17%.

For the molecule `COc1ccc2c(c[n+](C)c3c4cc5c(cc4ccc23)OCO5)c1OC.[Cl-]` [Chelerythrine (chloride)], the “Percentage of motility inhibition 0 h” value under setting [1] is 17%. The “Percentage of motility inhibition 24 h” value under setting [2] is given as 22%.

With Hydroxysafflor yellow A, where the note is “110 µM”, the “Percentage of motility inhibition 0 h” value stood at 36% and the “Percentage of motility inhibition 24 h” value is 12%.

On to `COc1cc(OC)c2c(=O)c(OC)c(-c3ccc(OC)c(OC)c3)oc2c1` [3,5,7,3′,4′‐Pentamethoxyflavone], for which, under setting [1], the “Percentage of motility inhibition 0 h” value amounted to 2%. Besides, the “Percentage of motility inhibition 24 h” value under setting [2] came out at 24%.

Consider `CN(C)CCn1nnnc1SCC1=C(C(=O)O)N2C(=O)[C@@H](NC(=O)Cc3csc(N)n3)[C@H]2SC1.Cl.Cl` [Cefotiam (hydrochloride)], for which, under setting [1], the “Percentage of motility inhibition 0 h” value amounted to 66%. For the same molecule, under setting [2], the “Percentage of motility inhibition 24 h” value is recorded as 37%.

For Xanthopterin (hydrate), under setting [1], the “Percentage of motility inhibition 0 h” value is 5%. The “Percentage of motility inhibition 24 h” value under setting [2] is listed as 0%.

Turning to `CCCCCCCCCCCCCCCCCCOC(=O)[C@@]1(C)CC[C@]2(C)CC[C@]3(C)C(=CC(=O)[C@@H]4[C@@]5(C)CC[C@H](O)C(C)(C)[C@@H]5CC[C@]43C)[C@@H]2C1` [Stearyl glycyrrhetinate], under setting [1], the “Percentage of motility inhibition 0 h” value came out at 0%. Also, under setting [2], the “Percentage of motility inhibition 24 h” value is reported as 0%.

`C=C1[C@@H]2CCC3[C@@](CC[C@@H]4[C@H](C(=O)O)C[C@@H](O[C@@H]5O[C@H](CO)[C@@H](OS(=O)(=O)[O-])[C@H](OS(=O)(=O)[O-])[C@H]5OC(=O)CC(C)C)C[C@@]34C)(C2)[C@@H]1O.[K+].[K+]` (stereo partly shown) [Atractyloside (potassium salt)]: the “Percentage of motility inhibition 0 h” value under setting [1] was 29%. In addition, the “Percentage of motility inhibition 24 h” value under setting [2] turned out to be 45%.

Regarding Kukoamine B, the “Percentage of motility inhibition 0 h” value under setting [1] amounted to 8%. Besides, the “Percentage of motility inhibition 24 h” value under setting [2] was found to be 0%.

As for `C=CCCCCCCCCC(=O)[O-].C=CCCCCCCCCC(=O)[O-].[Zn+2]` [10‐Undecenoic acid (zinc salt)], under setting [1], the “Percentage of motility inhibition 0 h” value amounted to 43%. Further, under setting [2], the “Percentage of motility inhibition 24 h” value was found to be 35%.

For the molecule `C[C@@H]1O[C@@H](O[C@H]2[C@H](O[C@H]3[C@H](O[C@H]4CC[C@@]5(C)[C@@H](CC[C@]6(C)[C@@H]5CC=C5[C@@H]7CC(C)(C)C[C@@H](O)[C@]7(C)CC[C@]56C)[C@@]4(C)CO)O[C@H](C(=O)O)[C@@H](O)[C@@H]3O)O[C@H](CO)[C@H](O)[C@@H]2O)[C@H](O)[C@H](O)[C@H]1O` [Soyasaponin Bb], under setting [1], the “Percentage of motility inhibition 0 h” value is recorded as 0%. Further, the “Percentage of motility inhibition 24 h” value under setting [2] stood at 0%.

Consider `CCCCC1OC(=O)c2ccccc21` (stereo not shown) [Butylphthalide], for which the “Percentage of motility inhibition 0 h” value under setting [1] is 0%. Further, the “Percentage of motility inhibition 24 h” value under setting [2] turned out to be 18%.

On to `CCC(CC)O[C@@H]1C=C(C(=O)O)C[C@H](N)[C@H]1NC(C)=O` [Oseltamivir (acid)], for which the “Percentage of motility inhibition 0 h” value under setting [1] is 18%. For the same molecule, the “Percentage of motility inhibition 24 h” value under setting [2] was 8%.

Turning to `C[C@@H]1O[C@@H](O[C@@H]2[C@H](O)[C@@H](O)[C@H](O[C@H]3CC[C@@]4(C)C(CC[C@]5(C)C4C=C[C@]46OC[C@@]7(CCC(C)(C)CC74)[C@@H](O)C[C@]65C)C3(C)C)O[C@@H]2CO[C@@H]2O[C@H](CO)[C@@H](O)[C@H](O)[C@H]2O)[C@H](O)[C@H](O)[C@H]1O` (stereo partly shown) [Saikosaponin C], the “Percentage of motility inhibition 0 h” value under setting [1] worked out at 24%. For the same molecule, under setting [2], the “Percentage of motility inhibition 24 h” value was determined as 0%.

For the molecule `COC(=O)C1=CCCNC1.Cl` [Guvacoline (hydrochloride)], the “Percentage of motility inhibition 0 h” value under setting [1] worked out at 0%. In addition, the “Percentage of motility inhibition 24 h” value under setting [2] came to 0%.

As to `C[C@H](CC[C@@H](O[C@@H]1O[C@H](CO[C@@H]2O[C@H](CO)[C@@H](O)[C@H](O)[C@H]2O)[C@@H](O)[C@H](O)[C@H]1O[C@@H]1O[C@H](CO)[C@@H](O)[C@H](O)[C@H]1O)C(C)(C)O)[C@H]1CC[C@@]2(C)[C@@H]3CC=C4[C@@H](CC[C@H](O[C@@H]5O[C@H](CO)[C@@H](O)[C@H](O)[C@H]5O)C4(C)C)[C@]3(C)[C@H](O)C[C@]12C` [Siamenoside I], the “Percentage of motility inhibition 0 h” value under setting [1] came out at 16%. Further, the “Percentage of motility inhibition 24 h” value under setting [2] is listed as 10%.

Consider Trigonelline (chloride), for which, under “110 µM”, the “Percentage of motility inhibition 0 h” value is reported as 2% and the “Percentage of motility inhibition 24 h” value was found to be 17%.

For `COC[C@]12CN(C)C3[C@@H]4[C@H](OC)[C@H]1[C@@]3([C@@H](OC)C[C@H]2O)[C@@H]1C[C@@]2(O)[C@H](OC(=O)c3ccccc3)[C@@H]1[C@]4(O)[C@@H](O)[C@@H]2OC` [Benzoylmesaconine], the “Percentage of motility inhibition 0 h” value under setting [1] was 1%. Moreover, the “Percentage of motility inhibition 24 h” value under setting [2] is given as 0%.

Consider `C[N+](C)(C)CCO.O=C([O-])C(O)C(O)C(=O)O` (stereo not shown) [Choline (bitartrate)], for which the “Percentage of motility inhibition 0 h” value under setting [1] was determined as 0%. In addition, the “Percentage of motility inhibition 24 h” value under setting [2] came to 0%.

On to `CC(C)C1=CC(=O)[C@@](C)([C@H]2[C@H](O)C[C@@]3(C)[C@@H]4CC=C5[C@@H](CC[C@@H](O[C@@H]6OC[C@@H](O)[C@H](O)[C@H]6O[C@@H]6O[C@@H](C)[C@H](O)[C@@H](O)[C@H]6O)C5(C)C)[C@]4(C)C(=O)C[C@]23C)O1` [Picfeltarraenin IA], for which, under setting [1], the “Percentage of motility inhibition 0 h” value is listed as 5%. The “Percentage of motility inhibition 24 h” value under setting [2] came out at 2%.

Regarding `CC1=C(/C=C/C(C)=C/C=C/C(C)=C/C=C/C=C(C)/C=C/C=C(\C)C=O)C(C)(C)CCC1` [β-Apo-8'-carotenal], under setting [1], the “Percentage of motility inhibition 0 h” value was 12%. Moreover, the “Percentage of motility inhibition 24 h” value under setting [2] is recorded as 1%.

In the case of `C[C@@H]1O[C@@H](O[C@H]2[C@H](OC(=O)[C@]34CCC(C)(C)C[C@H]3C3=CC[C@@H]5[C@@]6(C)C[C@H](O)[C@H](O[C@@H]7O[C@H](CO)[C@@H](O)[C@H](O)[C@H]7O)C(CO)(CO)[C@@H]6CC[C@@]5(C)[C@]3(C)C[C@H]4O)OC[C@H](O)[C@@H]2O)[C@H](O)[C@H](O)[C@H]1O[C@@H]1OC[C@@H](O)[C@H](O)[C@H]1O` [Deapioplatycodin D], under setting [1], the “Percentage of motility inhibition 0 h” value was found to be 12%. Moreover, the “Percentage of motility inhibition 24 h” value under setting [2] is given as 0%.

Consider `Clc1ccc(C(Cn2ccnc2)OCc2csc3c(Cl)cccc23)c(Cl)c1.O=[N+]([O-])O` (stereo not shown) [Sertaconazole (nitrate)], for which the “Percentage of motility inhibition 0 h” value under setting [1] is listed as 40%. Also, the “Percentage of motility inhibition 24 h” value under setting [2] worked out at 6%.

With `CC(=O)O[C@H]([C@@H](O)C[C@@H](C)C1=C2C[C@H](O)[C@H]3[C@@]4(C)CCC(=O)C(C)(C)[C@@H]4CC[C@]3(C)[C@@]2(C)CC1)C(C)(C)O` [Alisol A 24-acetate], under setting [1], the “Percentage of motility inhibition 0 h” value was determined as 3%. Besides, under setting [2], the “Percentage of motility inhibition 24 h” value is listed as 23%.

In the case of `CC1=C(C(=O)O)N2C(=O)[C@@H](NC(=O)[C@H](N)c3ccccc3)[C@H]2SC1.O` [Cephalexin (monohydrate)], the “Percentage of motility inhibition 0 h” value under setting [1] worked out at 8%. Moreover, under setting [2], the “Percentage of motility inhibition 24 h” value is given as 0%.
